According to article PMC5357639 (Frontiers in Chemistry, 2017):
≈ marks a conversion by molar mass, not a printed value. Entries after “also recorded” stand apart in the source; their conditions may differ. Where two headings read alike, the source gives them in different places. Where a SMILES comes first, the peptide text is derived from it. [ ]: non-standard residue; d: D form. The star is where a group is joined. Orn(α-tetramethylguanidino) = CN(C)C(=N[C@@H](CCCN)C(=O)*)N(C)C; Orn = NCCC[C@H](N)C(=O)O

Key:
[1] = tested on: E. coli ATCC 25922; conditions: same infection model; ref Schmidt et al., 2016; cited from earlier work
Text: Antimicrobial peptides (AMPs) are considered as promising alternatives to common antibiotics that threateningly lose their therapeutic potentials against multidrug-resistant pathogens (Fox, [2013]; Wang et al., [2015]). In contrast to approved therapeutic peptide hormones, antimicrobial peptides have to be administered at much higher doses, which may amplify general drawbacks of peptide therapeutics. […] Api137 appeared more efficient in this septicemia model due to the better scores obtained at ... || Apidaecin analogs Api88 and Api137 are similarly active against Gram-negative bacteria with a tendency of higher activity of Api88 against K. pneumoniae (Czihal et al., [2012]; Berthold et al., [2013]). However, Api88 carries a C-terminal amide that is responsible for its very fast proteolytic cleavage in serum, the supernatant obtained after complete coagulation and centrifugation of blood. The in vitro serum stability assay, which is an important in vitro criterion to select therapeutic peptides for systemic applications, yielded very short half-life times of 5 min for Api88, which indicate ...

[2] = tested on: E. coli ATCC 25922; conditions: cited from earlier work
Text: Antimicrobial peptides (AMPs) are considered as promising alternatives to common antibiotics that threateningly lose their therapeutic potentials against multidrug-resistant pathogens (Fox, [2013]; Wang et al., [2015]). In contrast to approved therapeutic peptide hormones, antimicrobial peptides have to be administered at much higher doses, which may amplify general drawbacks of peptide therapeutics. For example, the diabetes peptide drugs exenatide and pramlintide are given at daily doses of 20 μg (Byetta®; ~0.5 μg/kg) and 120 μg (Symlin®; ~1.5 μg/kg; Heine et al., [2005]; Hay et al., [2015]) ... || Apidaecin analogs Api88 and Api137 are similarly active against Gram-negative bacteria with a tendency of higher activity of Api88 against K. pneumoniae (Czihal et al., [2012]; Berthold et al., [2013]). However, Api88 carries a C-terminal amide that is responsible for its very fast proteolytic cleavage in serum, the supernatant obtained after complete coagulation and centrifugation of blood. The in vitro serum stability assay, which is an important in vitro criterion to select therapeutic peptides for systemic applications, yielded very short half-life times of 5 min for Api88, which indicate ...

[3] = cited from earlier work
Text: Proline-rich antimicrobial peptides (PrAMPs) represent promising alternative therapeutic options for the treatment of multidrug-resistant bacterial infections. PrAMPs are predominantly active against Gram-negative bacteria by inhibiting protein expression via at least two different modes of action, i.e., blocking the ribosomal exit tunnel of 70S ribosomes (oncocin-type binding) or inhibiting the assembly of the 50S ribosomal subunit (apidaecin-type binding). The in vivo efficacy and favorable biodistribution of oncocins confirmed the therapeutic potential of short PrAMPs for the first time, wh ... || Antimicrobial peptides (AMPs) are considered as promising alternatives to common antibiotics that threateningly lose their therapeutic potentials against multidrug-resistant pathogens (Fox, [2013]; Wang et al., [2015]). In contrast to approved therapeutic peptide hormones, antimicrobial peptides have to be administered at much higher doses, which may amplify general drawbacks of peptide therapeutics. […]

[4] = biological target: 70S ribosomes; conditions: fluorescence polarization assay; ref Krizsan et al., 2014; cited from earlier work
Text: Antimicrobial peptides (AMPs) are considered as promising alternatives to common antibiotics that threateningly lose their therapeutic potentials against multidrug-resistant pathogens (Fox, [2013]; Wang et al., [2015]). In contrast to approved therapeutic peptide hormones, antimicrobial peptides have to be administered at much higher doses, which may amplify general drawbacks of peptide therapeutics. For example, the diabetes peptide drugs exenatide and pramlintide are given at daily doses of 20 μg (Byetta®; ~0.5 μg/kg) and 120 μg (Symlin®; ~1.5 μg/kg; Heine et al., [2005]; Hay et al., [2015]) ...

[5] = mouse, in vivo, ip; cited from earlier work
Text: Apidaecin analogs Api88 and Api137 are similarly active against Gram-negative bacteria with a tendency of higher activity of Api88 against K. pneumoniae (Czihal et al., [2012]; Berthold et al., [2013]). However, Api88 carries a C-terminal amide that is responsible for its very fast proteolytic cleavage in serum, the supernatant obtained after complete coagulation and centrifugation of blood. The in vitro serum stability assay, which is an important in vitro criterion to select therapeutic peptides for systemic applications, yielded very short half-life times of 5 min for Api88, which indicate ...

[6] = in vitro; assay type: in vitro ADME, CD-1 mice; conditions: female, CD-1, mouse, cerebrospinal or other body fluid
Protocol: Peritoneal lavage (1.5–2 mL) were collected from three euthanized female CD-1 mice (14 weeks, 32–33 g) after injecting sterile PBS intraperitoneal (4 mL). Peptides were incubated with aliquots (95 μL) of fresh lavage (75 μg/mL, 37°C, 750 rpm). After 0, 30, and 60 min trichloroacetic acid (25 μL, 15% w/v) was added to the samples to precipitate proteins, incubated on ice (10 min), and centrifuged (5 min, 12.400 × g). Supernatants were neutralized with sodium hydroxide (1 mol/L) and analyzed by RP-HPLC using a Poroshell 120 SB-C18-column (2.1 mm internal diameter, 100 mm length, 2.7 μm particle size, 12 nm pore size, Agilent Technologies Inc., Santa Clara, CA, USA) at 60°C and an aqueous acetonitrile gradient containing trifluoroacetic acid (0.1%, v/v). Absorbance was recorded at a wavelength of 214 nm.

[7] = mouse, in vivo, ip, 5 mg/kg; cited from earlier work
Text: The recovery rates obtained from the spiked samples, were used to calculate the total amounts of intact peptides in blood, liver, and kidneys after intraperitoneal administration (Figures 6B–E, Tables S10, S11). The relative recovery in the studied organs and blood was only around 1.5 ± 0.6–2.1 ± 0.7% of the injected peptide amounts. Considering the mean weight of 29 g per mouse in this study and the weights of blood, liver, two kidneys, and brain with 2.2, 1.5, 0.5, and 0.5 g, respectively (~16% of the total weight), around 12% of the injected peptide quantities were detected in the samples c ...

[8] = plasma after intravenous administration; conditions: CD-1 mice, up to 60 min
[9] = fresh peritoneal lavage (PBS injected intraperitoneal), ex vivo; conditions: CD-1 mice, 37°C, up to 60 min
[10] = liver homogenates after intraperitoneal administration; conditions: NMRI mice, up to 90 min
[11] = mouse serum in vitro; conditions: cited from earlier work
[12] = Lithium-heparin plasma after intraperitoneal administration; conditions: NMRI mice, up to 90 min
[13] = E. coli ATCC 25922, ref Knappe et al., 2016c
[14] = metabolites, in vitro, no method in this paper, reference not given

CC[C@H](C)[C@H](NC(=O)[C@@H](CCCNC(=N)N)NC(=O)[C@H](CCCNC(=N)N)NC(=O)[C@@H]1CCCN1C(=O)[C@@H]1CCCN1C(=O)[C@H](CCCNC(=N)N)NC(=O)[C@@H]1CCCN1C(=O)[C@H](CCCNC(=N)N)NC(=O)[C@@H]1CCCN1C(=O)[C@H](CC(C)C)NC(=O)[C@H](Cc1ccc(O)cc1)NC(=O)[C@@H]1CCCN1C(=O)[C@@H]1CCCN1C(=O)[C@H](CCCCN)NC(=O)[C@H](CC(=O)O)NC(=O)[C@@H](N)C(C)C)C(=O)N[C@@H](Cc1ccc(O)cc1)C(=O)N[C@@H](CC(N)=O)C(=O)N[C@H](CCCNC(=N)N)C(N)=O [Onc112, reference compound] (H-VDKPPYLPRPRPPR[dR]IYN[dR]-NH2; N-terminus and C-terminus assumed)
Dose rescuing all animals [1]: 2.5 mg/kg
MIC [2, 13]: 4 µg/mL (≈ 1.67 µM)
Serum half-life time [3]: exceeded 8 h
Kd [4]: 90 nM
Maximum plasma level reported for oncocins, compared with lower dose groups [5]: 8 µg/mL
remaining at 1 h, 75 μg/mL [6]: > 89%
Recovery rate of injected peptide [7]: 32%
maximum plasma levels relative to Api88 and Api137: < 10 fold

CC[C@H](C)[C@H](NC(=O)[C@H](CCCN)NC(=O)[C@H](CCCNC(=N)N)NC(=O)[C@@H]1CCCN1C(=O)[C@@H]1CCCN1C(=O)[C@H](CCCNC(=N)N)NC(=O)[C@@H]1CCCN1C(=O)[C@H](CCCNC(=N)N)NC(=O)[C@@H]1CCCN1C(=O)[C@H](CC(C)C)NC(=O)[C@H](Cc1ccc(O)cc1)NC(=O)[C@@H]1CCCN1C(=O)[C@@H]1CCCN1C(=O)[C@H](CCCCN)NC(=O)[C@H](CC(=O)O)NC(=O)[C@@H](N)C(C)C)C(=O)N[C@@H](Cc1ccc(O)cc1)C(=O)N[C@@H](CC(N)=O)C(=O)N[C@@H](CCCN)C(N)=O [Onc72, reference compound] (H-VDKPPYLPRPRPPR[Orn]IYN[Orn]-NH2; N-terminus and C-terminus assumed)
Dose rescuing all animals [1]: 5 mg/kg
MIC [2, 13]: 16 µg/mL (≈ 6.94 µM)
Kd [4]: 450 nM
Maximum plasma level reported for oncocins, compared with lower dose groups [5]: 6 µg/mL
Plasma level reported for oncocin, compared with high dose groups [5]: 18000 ng/mL
remaining at 1 h, 75 μg/mL [6]: > 89%
Recovery rate of injected peptide [7]: 47%
maximum plasma levels relative to Api88 and Api137: < 10 fold

CC[C@H](C)[C@H](NC(=O)[C@H](Cc1ccc(O)cc1)NC(=O)[C@@H](NC(=O)[C@@H]1CCCN1C(=O)[C@H](CCCNC(=N)N)NC(=O)[C@H](CC(N)=O)NC(=O)[C@H](CC(N)=O)NC(=O)[C@H](CCCN)N=C(N(C)C)N(C)C)C(C)C)C(=O)N1CCC[C@H]1C(=O)N[C@@H](CCCNC(=N)N)C(=O)N1CCC[C@H]1C(=O)N[C@@H](CCCNC(=N)N)C(=O)N1CCC[C@H]1C(=O)N1CCC[C@H]1C(=O)N[C@@H](Cc1c[nH]cn1)C(=O)N1CCC[C@H]1C(=O)N[C@@H](CCCNC(=N)N)C(=O)O [Api1-17] ({Orn(α-tetramethylguanidino)}-NNRPVYIPRPRPPHPR-OH)
MIC [2, 14]: 64 µg/mL

gu-ONNRPVYIPRPRPPHPRL-NH2
fragment found [8]: Api1-17, major, 5 min; also recorded: Api1-16, major, 5 min
fragment found [9]: Api1-17, major, 30 min
fragment found [10]: Api1-17, major; also recorded: Api1-16, major
fragment found [11]: Api1-17, major; also recorded: Api1-16, major
fragment found [12]: Api1-16, major, 10 min; also recorded: Api2-16; also recorded: Api7-18; also recorded: Api3-18; also recorded: Api7-12; also recorded: Api1-6; also recorded: Api1-17, major, 10 min

gu-ONNRPVYIPRPRPPHPRL-OH
fragment found [9]: Api1-17, major, 30 min
fragment found [10]: Api1-17, major; also recorded: Api1-16, major
fragment found [11]: Api1-17, major; also recorded: Api1-16, major
fragment found [12]: Api1-17, major, 10 min; also recorded: Api1-16, major, 10 min; also recorded: Api7-12, minor; also recorded: Api2-16, minor; also recorded: Api2-18, minor

CC[C@H](C)[C@H](NC(=O)[C@H](Cc1ccc(O)cc1)NC(=O)[C@@H](NC(=O)[C@@H]1CCCN1C(=O)[C@H](CCCNC(=N)N)NC(=O)[C@H](CC(N)=O)NC(=O)[C@H](CC(N)=O)NC(=O)[C@H](CCCN)N=C(N(C)C)N(C)C)C(C)C)C(=O)N1CCC[C@H]1C(=O)N[C@@H](CCCNC(=N)N)C(=O)N1CCC[C@H]1C(=O)N[C@@H](CCCNC(=N)N)C(=O)N1CCC[C@H]1C(=O)N1CCC[C@H]1C(=O)N[C@@H](Cc1c[nH]cn1)C(=O)N1CCC[C@H]1C(=O)O [Api1-16] ({Orn(α-tetramethylguanidino)}-NNRPVYIPRPRPPHP-OH)
MIC [2, 14]: > 128 µg/mL
